# Assay results from paper PMC6151383 (Molecules : A Journal of Synthetic Chemistry and Natural …, 2017).
# System: Mycobacterium tuberculosis 331/88 (H37Rv)
# Assay: In vitro antimycobacterial MIC, M. tuberculosis
# Format: cell-based
# Conditions: 336 h, 14 d incubation, read-out: MIC Mtb. 331/88 14 d
row,Structure (SMILES),MIC [µM]
1,"O=S(=O)(Nc1ncccn1)c1ccc(N=Cc2c(O)cccc2Cl)cc1 [Compound 2k, 4-[(2-Chloro-6-hydroxybenzylidene)amino]-N-(pyrimidin-2-yl)benzenesulfonamide]",125

# Same assay, conditions: 504 h, 21 d incubation, read-out: MIC Mtb. 331/88 21 d
row,Structure (SMILES),MIC [µM]
1,"O=S(=O)(Nc1ncccn1)c1ccc(N=Cc2c(O)cccc2Cl)cc1 [Compound 2k, 4-[(2-Chloro-6-hydroxybenzylidene)amino]-N-(pyrimidin-2-yl)benzenesulfonamide]",125

# System: Staphylococcus epidermidis H 6966/08
# Assay: Antibacterial microdilution broth MIC, S. epidermidis
# Format: cell-based
# Conditions: Staphylococcus epidermidis, H6966/08; 48 h incubation; read-out: MIC SE 48 h
row,Structure (SMILES),MIC [µM]
1,"O=S(=O)(Nc1ncccn1)c1ccc(N=Cc2c(O)cccc2Cl)cc1 [Compound 2k, 4-[(2-Chloro-6-hydroxybenzylidene)amino]-N-(pyrimidin-2-yl)benzenesulfonamide]",> 250

# System: Aspergillus fumigatus 231
# Assay: Antifungal microdilution broth MIC, A. fumigatus
# Format: cell-based
# Conditions: Aspergillus fumigatus, 231; 48 h incubation; read-out: MIC AF 48 h
row,Structure (SMILES),MIC [µM]
1,"O=S(=O)(Nc1ncccn1)c1ccc(N=Cc2c(O)cccc2Cl)cc1 [Compound 2k, 4-[(2-Chloro-6-hydroxybenzylidene)amino]-N-(pyrimidin-2-yl)benzenesulfonamide]",> 250

# System: Candida sp.
# Assay: Selectivity index for Candida sp. (IC50 HepG2/MIC)
# Format: cell-based
# Conditions: all Candida species
row,Structure (SMILES),SI for Candida sp.
1,"O=S(=O)(Nc1ncccn1)c1ccc(N=Cc2c(O)cccc2Cl)cc1 [Compound 2k, 4-[(2-Chloro-6-hydroxybenzylidene)amino]-N-(pyrimidin-2-yl)benzenesulfonamide]",inactive

# System: Staphylococcus aureus CCM 4516/08
# Assay: Antibacterial microdilution broth MIC, S. aureus
# Format: cell-based
# Conditions: Staphylococcus aureus, CCM4516; 48 h incubation; read-out: MIC SA 48 h
row,Structure (SMILES),MIC [µM]
1,"O=S(=O)(Nc1ncccn1)c1ccc(N=Cc2c(O)cccc2Cl)cc1 [Compound 2k, 4-[(2-Chloro-6-hydroxybenzylidene)amino]-N-(pyrimidin-2-yl)benzenesulfonamide]",> 250

# System: Mycobacterium kansasii 235/80
# Assay: In vitro antimycobacterial MIC, M. kansasii 235/80
# Format: cell-based
# Conditions: 235/80, 168 h, 7 d incubation, read-out: MIC M. kansasii 235/80 7 d
row,Structure (SMILES),MIC [µM]
1,"O=S(=O)(Nc1ncccn1)c1ccc(N=Cc2c(O)cccc2Cl)cc1 [Compound 2k, 4-[(2-Chloro-6-hydroxybenzylidene)amino]-N-(pyrimidin-2-yl)benzenesulfonamide]",62.5

# Same assay, conditions: 235/80, 336 h, 14 d incubation, read-out: MIC M. kansasii 235/80 14 d
row,Structure (SMILES),MIC [µM]
1,"O=S(=O)(Nc1ncccn1)c1ccc(N=Cc2c(O)cccc2Cl)cc1 [Compound 2k, 4-[(2-Chloro-6-hydroxybenzylidene)amino]-N-(pyrimidin-2-yl)benzenesulfonamide]",125

# Same assay, conditions: 235/80, 504 h, 21 d incubation, read-out: MIC M. kansasii 235/80 21 d
row,Structure (SMILES),MIC [µM]
1,"O=S(=O)(Nc1ncccn1)c1ccc(N=Cc2c(O)cccc2Cl)cc1 [Compound 2k, 4-[(2-Chloro-6-hydroxybenzylidene)amino]-N-(pyrimidin-2-yl)benzenesulfonamide]",250

# System: Enterococcus faecalis J 14365/08
# Assay: Antibacterial microdilution broth MIC, E. faecalis
# Format: cell-based
# Conditions: Enterococcus faecalis, J14365/08; 48 h incubation; read-out: MIC EF 48 h
row,Structure (SMILES),MIC [µM]
1,"O=S(=O)(Nc1ncccn1)c1ccc(N=Cc2c(O)cccc2Cl)cc1 [Compound 2k, 4-[(2-Chloro-6-hydroxybenzylidene)amino]-N-(pyrimidin-2-yl)benzenesulfonamide]",> 250

# System: Lichtheimia corymbifera 272
# Assay: Antifungal microdilution broth MIC, L. corymbifera
# Format: cell-based
# Conditions: Lichtheimia corymbifera, 272; 48 h incubation; read-out: MIC LC 48 h
row,Structure (SMILES),MIC [µM]
1,"O=S(=O)(Nc1ncccn1)c1ccc(N=Cc2c(O)cccc2Cl)cc1 [Compound 2k, 4-[(2-Chloro-6-hydroxybenzylidene)amino]-N-(pyrimidin-2-yl)benzenesulfonamide]",> 250

# System: Candida krusei E28
# Assay: Antifungal microdilution broth MIC, C. krusei
# Format: cell-based
# Conditions: Pichia kudriavzevii, E28; 48 h incubation; read-out: MIC CK 48 h
row,Structure (SMILES),MIC [µM]
1,"O=S(=O)(Nc1ncccn1)c1ccc(N=Cc2c(O)cccc2Cl)cc1 [Compound 2k, 4-[(2-Chloro-6-hydroxybenzylidene)amino]-N-(pyrimidin-2-yl)benzenesulfonamide]",> 250

# System: ESBL-positive Klebsiella pneumoniae J 14368/08
# Assay: not given
# Conditions: 24 h
row,Structure (SMILES),MIC KP-E 24 h [µM]
1,"O=S(=O)(Nc1ncccn1)c1ccc(N=Cc2c(O)cccc2Cl)cc1 [Compound 2k, 4-[(2-Chloro-6-hydroxybenzylidene)amino]-N-(pyrimidin-2-yl)benzenesulfonamide]",>250

# Same assay, conditions: 48 h
row,Structure (SMILES),MIC KP-E 48 h [µM]
1,"O=S(=O)(Nc1ncccn1)c1ccc(N=Cc2c(O)cccc2Cl)cc1 [Compound 2k, 4-[(2-Chloro-6-hydroxybenzylidene)amino]-N-(pyrimidin-2-yl)benzenesulfonamide]",>250

# System: Pseudomonas aeruginosa CCM 1961
# Assay: Antibacterial microdilution broth MIC, P. aeruginosa
# Format: cell-based
# Conditions: Pseudomonas aeruginosa, CCM1961; 48 h incubation; read-out: MIC PA 48 h
row,Structure (SMILES),MIC [µM]
1,"O=S(=O)(Nc1ncccn1)c1ccc(N=Cc2c(O)cccc2Cl)cc1 [Compound 2k, 4-[(2-Chloro-6-hydroxybenzylidene)amino]-N-(pyrimidin-2-yl)benzenesulfonamide]",> 250

# System: Candida albicans ATCC 44859
# Assay: Antifungal microdilution broth MIC, C. albicans
# Format: cell-based
# Conditions: ATCC44859, 48 h incubation, read-out: MIC CA 48 h
row,Structure (SMILES),MIC [µM]
1,"O=S(=O)(Nc1ncccn1)c1ccc(N=Cc2c(O)cccc2Cl)cc1 [Compound 2k, 4-[(2-Chloro-6-hydroxybenzylidene)amino]-N-(pyrimidin-2-yl)benzenesulfonamide]",> 250

# System: Trichophyton interdigitale 445
# Assay: Antifungal microdilution broth MIC, T. interdigitale
# Format: cell-based
# Conditions: SI = IC50 (HepG2)/MIC, Trichophyton interdigitale
row,Structure (SMILES),SI for TI
1,"O=S(=O)(Nc1ncccn1)c1ccc(N=Cc2c(O)cccc2Cl)cc1 [Compound 2k, 4-[(2-Chloro-6-hydroxybenzylidene)amino]-N-(pyrimidin-2-yl)benzenesulfonamide]",inactive

# Same assay, conditions: Trichophyton interdigitale, 445; 72 h incubation; read-out: MIC TI 72 h
row,Structure (SMILES),MIC [µM]
1,"O=S(=O)(Nc1ncccn1)c1ccc(N=Cc2c(O)cccc2Cl)cc1 [Compound 2k, 4-[(2-Chloro-6-hydroxybenzylidene)amino]-N-(pyrimidin-2-yl)benzenesulfonamide]",> 250

# Same assay, conditions: Trichophyton interdigitale, 445; 120 h incubation; read-out: MIC TI 120 h
row,Structure (SMILES),MIC [µM]
1,"O=S(=O)(Nc1ncccn1)c1ccc(N=Cc2c(O)cccc2Cl)cc1 [Compound 2k, 4-[(2-Chloro-6-hydroxybenzylidene)amino]-N-(pyrimidin-2-yl)benzenesulfonamide]",> 250

# System: Candida glabrata 20/I
# Assay: Antifungal microdilution broth MIC, C. glabrata
# Format: cell-based
# Conditions: Nakaseomyces glabratus, 48 h incubation, read-out: MIC CG 48 h
row,Structure (SMILES),MIC [µM]
1,"O=S(=O)(Nc1ncccn1)c1ccc(N=Cc2c(O)cccc2Cl)cc1 [Compound 2k, 4-[(2-Chloro-6-hydroxybenzylidene)amino]-N-(pyrimidin-2-yl)benzenesulfonamide]",> 250

# System: Trichosporon asahii 1188
# Assay: Antifungal microdilution broth MIC, T. asahii
# Format: cell-based
# Conditions: Trichosporon asahii, 1188; 48 h incubation; read-out: MIC TA 48 h
row,Structure (SMILES),MIC [µM]
1,"O=S(=O)(Nc1ncccn1)c1ccc(N=Cc2c(O)cccc2Cl)cc1 [Compound 2k, 4-[(2-Chloro-6-hydroxybenzylidene)amino]-N-(pyrimidin-2-yl)benzenesulfonamide]",> 250

# System: M. kansasii 6509/96
# Assay: In vitro antimycobacterial MIC, M. kansasii clinical isolate
# Format: cell-based
# Conditions: Mycobacterium kansasii, 6509/96, 168 h; 7 d incubation; read-out: MIC M. kansasii 6509/96 7 d
row,Structure (SMILES),MIC [µM]
1,"O=S(=O)(Nc1ncccn1)c1ccc(N=Cc2c(O)cccc2Cl)cc1 [Compound 2k, 4-[(2-Chloro-6-hydroxybenzylidene)amino]-N-(pyrimidin-2-yl)benzenesulfonamide]",62.5

# Same assay, conditions: Mycobacterium kansasii, 6509/96, 336 h; 14 d incubation; read-out: MIC M. kansasii 6509/96 14 d
row,Structure (SMILES),MIC [µM]
1,"O=S(=O)(Nc1ncccn1)c1ccc(N=Cc2c(O)cccc2Cl)cc1 [Compound 2k, 4-[(2-Chloro-6-hydroxybenzylidene)amino]-N-(pyrimidin-2-yl)benzenesulfonamide]",125

# Same assay, conditions: Mycobacterium kansasii, 6509/96, 504 h; 21 d incubation; read-out: MIC M. kansasii 6509/96 21 d
row,Structure (SMILES),MIC [µM]
1,"O=S(=O)(Nc1ncccn1)c1ccc(N=Cc2c(O)cccc2Cl)cc1 [Compound 2k, 4-[(2-Chloro-6-hydroxybenzylidene)amino]-N-(pyrimidin-2-yl)benzenesulfonamide]",125

# System: Escherichia coli CCM 4517
# Assay: Antibacterial microdilution broth MIC, E. coli
# Format: cell-based
# Conditions: Escherichia coli, CCM4517; 48 h incubation; read-out: MIC EC 48 h
row,Structure (SMILES),MIC [µM]
1,"O=S(=O)(Nc1ncccn1)c1ccc(N=Cc2c(O)cccc2Cl)cc1 [Compound 2k, 4-[(2-Chloro-6-hydroxybenzylidene)amino]-N-(pyrimidin-2-yl)benzenesulfonamide]",> 250

# System: Klebsiella pneumoniae D 11750/08
# Assay: not given
# Conditions: 24 h
row,Structure (SMILES),MIC KP 24 h [µM]
1,"O=S(=O)(Nc1ncccn1)c1ccc(N=Cc2c(O)cccc2Cl)cc1 [Compound 2k, 4-[(2-Chloro-6-hydroxybenzylidene)amino]-N-(pyrimidin-2-yl)benzenesulfonamide]",>250

# Same assay, conditions: 48 h
row,Structure (SMILES),MIC KP 48 h [µM]
1,"O=S(=O)(Nc1ncccn1)c1ccc(N=Cc2c(O)cccc2Cl)cc1 [Compound 2k, 4-[(2-Chloro-6-hydroxybenzylidene)amino]-N-(pyrimidin-2-yl)benzenesulfonamide]",>250

# System: Candida tropicalis 156
# Assay: Antifungal microdilution broth MIC, C. tropicalis
# Format: cell-based
# Conditions: Candida tropicalis, 156; 48 h incubation; read-out: MIC CT 48 h
row,Structure (SMILES),MIC [µM]
1,"O=S(=O)(Nc1ncccn1)c1ccc(N=Cc2c(O)cccc2Cl)cc1 [Compound 2k, 4-[(2-Chloro-6-hydroxybenzylidene)amino]-N-(pyrimidin-2-yl)benzenesulfonamide]",> 250

# System: Mycobacterium avium 330/88
# Assay: In vitro antimycobacterial MIC, M. avium
# Format: cell-based
# Conditions: 330/88, 336 h, 14 d incubation, read-out: MIC M. avium 330/88 14 d
row,Structure (SMILES),MIC [µM]
1,"O=S(=O)(Nc1ncccn1)c1ccc(N=Cc2c(O)cccc2Cl)cc1 [Compound 2k, 4-[(2-Chloro-6-hydroxybenzylidene)amino]-N-(pyrimidin-2-yl)benzenesulfonamide]",250

# Same assay, conditions: 330/88, 504 h, 21 d incubation, read-out: MIC M. avium 330/88 21 d
row,Structure (SMILES),MIC [µM]
1,"O=S(=O)(Nc1ncccn1)c1ccc(N=Cc2c(O)cccc2Cl)cc1 [Compound 2k, 4-[(2-Chloro-6-hydroxybenzylidene)amino]-N-(pyrimidin-2-yl)benzenesulfonamide]",250
